{"source": "patent US20080038386A1", "about": "“Use of a liquid cooling sensate to provide a pungent, warming or tingling sensate composition” (priority 2006, published 2008)", "key": {"[1]": {"assay": "Sensory panel: pungency enhancement of a hot chile pepper sauce", "type": "in vivo", "source_text": "For this type evaluation, a panel consisting of both professional flavorists and other individuals with sensory testing experience was employed. In each tasting session two samples were presented to the panelists in a randomized order to avoid presentation order effect. Panelists were asked to rate the samples as same or different. If different, panelists were asked to rate the “pungent, hotness (warming) or tingling” intensity and to describe the flavor profile as compared to a control sample without the eutectic cooling mixture.\nA commercial hot chile pepper sauce derived from Capsicum frutescens var. tabasco (Tabasco® brand) (whose primary pungent principles are the amides capsaicin and dihydrocapsaicin) was diluted to 5% strength in water (the control). […] The control sample was the 5% strength hot chile pepper sauce. […] The degree of hotness (warmth) and pungency profile enhancement was judged to be 25-35%."}, "[2]": {"conditions": "30 ppm in sucrose solution; cited from earlier work"}}}
{"smiles": "CCNC(=O)C1CC(C)CCC1C(C)C", "note": "(stereo not drawn) [WS-3, N-Ethyl-p-menthane-3-carboxamide]", "values": [{"measurement": "accompanying sensory effect noted by panelists", "setting": "[1]; 28 ppm in 5% strength hot chile pepper sauce, especially in the back of the throat", "result": "unpleasant irritating-scratchy effect"}, {"measurement": "sensory balance accompanying the pungency enhancement", "setting": "[1]; capsaicin containing products (summary statement)", "result": "unbalanced scratchy-irritating and distorted sensory impression"}]}
{"smiles": "C/C=C/C=C\\CC/C=C/C(=O)NCC(C)C", "note": "[spilanthol, 2E,6Z,8E-decatrienoic acid-N-isobutylamide]", "values": [{"measurement": "sensory description", "setting": "[2]", "result": "tingling & mouth watering"}]}
